{"source": "patent US20040082551A1", "about": "“Novel pyrazoles and their use as p38 kinase inhibitors” (priority 2002, published 2004)", "note": "Where “and” joins values, the source holds several entries; their conditions need not be identical. Identical values can stand only once.", "data": [{"biological_target": "T1, human p38 kinase alpha (Homo sapiens, UniProt Q16539)", "T1 construct": "The coding region of the human p38α cDNA was obtained by PCR-amplification from RNA isolated from the human monocyte cell line THP.1; made in house; host or cells: E. coli DH10B", "T1 sequence (Q16539 whole entry)": "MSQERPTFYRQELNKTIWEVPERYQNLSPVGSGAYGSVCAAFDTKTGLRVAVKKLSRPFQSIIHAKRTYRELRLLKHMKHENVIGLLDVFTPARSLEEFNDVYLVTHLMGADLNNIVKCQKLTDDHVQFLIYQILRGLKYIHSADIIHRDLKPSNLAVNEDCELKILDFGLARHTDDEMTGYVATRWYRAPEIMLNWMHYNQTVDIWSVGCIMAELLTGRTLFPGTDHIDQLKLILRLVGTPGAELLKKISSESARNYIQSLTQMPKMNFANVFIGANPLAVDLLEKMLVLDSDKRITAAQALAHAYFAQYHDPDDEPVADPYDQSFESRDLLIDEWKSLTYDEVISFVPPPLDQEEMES", "test": "In vitro p38 kinase inhibition analysis (PHAS-I 32P-ATP or EGFRP 33P-ATP format)", "format": "biochemical", "details": "Table 2; additional pyrazole compounds, Examples 56-169; read-out: p38α Kinase Inhibition (IC50 in μM)", "procedure": "The ability of compounds to inhibit human p38 kinase alpha was evaluated using one of two in vitro assay methods. In the first method, activated human p38 kinase alpha phosphorylates a biotinylated substrate, PHAS-I (phosphorylated heat and acid stable protein-insulin inducible), in the presence of gamma ^32P-ATP (^32P-ATP). PHAS-I was biotinylated before the assay, and provided a means of capturing the substrate which was phosphorylated during the assay. p38 Kinase was activated by MKK6. Compounds were tested in 10 fold serial dilutions over the range of 100 μM to 0.001 μM using 1% DMSO. Each concentration of inhibitor was tested in triplicate.\nAll reactions were carried out in 96 well polypropylene plates. Each reaction well contained 25 mM HEPES pH 7.5, 10 mM magnesium acetate, and 50 μM unlabeled ATP. […] Activated human p38 kinase alpha was used at 1 μg per 50 μl reaction volume, representing a final concentration of 0.3 μM. Gamma ^32P-ATP was used to follow the phosphorylation of PHAS-I. ^32P-ATP has a specific activity of 3000 Ci/mmol, and was used at 1.2 μCi per 50 μl reaction volume. The reaction proceeded either for one hr or overnight at 30° C.\nFollowing incubation, 20 μl of reaction mixture was transferred to a high capacity streptavidin coated filter plate (SAM-streptavidin-matrix, Promega) prewetted with phosphate buffered saline. The transferred reaction mix was allowed to contact the streptavidin membrane of the Promega plate for 1-2 min. […] Filter plates were air dried and 20 μl of scintillant was added. The plates were sealed and counted.\nA second assay format was alternatively employed. This assay is based on p38 kinase alpha being induced phosphorylation of EGFRP (epidermal growth factor receptor peptide, a 21 mer) in the presence of ^33P-ATP. Compounds were tested in 10 fold serial dilutions over the range of 100 μM to 0.001 μM in 10% DMSO. Each concentration of inhibitor was tested in triplicate. Compounds were evaluated in 50 μl reaction volumes in the presence of 25 mM HEPES pH 7.5, 10 mM magnesium acetate, 4% glycerol, 0.4% bovine serum albumin, 0.4 mM DTT, 50 μM unlabeled ATP, 25 μg EGFRP (200 μM), and 0.05 uCi gamma ^33P-ATP. Reactions were initiated by addition of 0.09 μg of activated, purified human GST-p38 kinase alpha. Activation was carried out using GST-MKK6 (5:1,p38:MKK6) for one hr at 30° C. in the presence of 50 μM ATP. Following incubation for 60 min at room temperature, the reaction was stopped by addition of 150 μl of AG 1×8 resin in 900 mM sodium formate buffer, pH 3.0 (1 volume resin to 2 volumes buffer). The mixture was mixed three times with pipetting. Afterward, the resin was allowed to settle. A total of 50 μl of clarified solution head volume was transferred from the reaction wells to Microlite-2 plates. 150 μl of Microscint 40 was then added to each well of the Microlite plate, and the plate was sealed, mixed, and counted.", "values": [{"smiles": "CC(C)(C)OC(=O)N1CCC(c2[nH]nc(-c3ccc(Cl)cc3)c2-c2ccnc(OC3CCCC3)n2)CC1", "note": "[Example 131]", "IC50": "1.68 µM"}, {"smiles": "CC(C)(C)OC(=O)N1CCC(c2[nH]nc(-c3ccc(Cl)cc3)c2-c2ccnc(O[C@@H]3CCOC3)n2)CC1", "note": "[Example 132]", "IC50": "3.34 µM"}, {"smiles": "CC(C)(C)OC(=O)N1CCC(c2[nH]nc(-c3ccc(Cl)cc3)c2-c2ccnc(Oc3ccccc3C#N)n2)CC1", "note": "[Example 133]", "IC50": "0.848 µM"}, {"smiles": "CC(C)(C)OC(=O)N1CCC(c2[nH]nc(-c3ccc(Cl)cc3)c2-c2ccnc(Oc3cccc(C#N)c3)n2)CC1", "note": "[Example 134]", "IC50": "1.59 µM"}, {"smiles": "CC(C)(C)OC(=O)N1CCC(c2[nH]nc(-c3ccc(Cl)cc3)c2-c2ccnc(Oc3ccc(C#N)cc3)n2)CC1", "note": "[Example 135]", "IC50": "1.5 µM"}, {"smiles": "CC(C)(C)OC(=O)N1CCC(c2[nH]nc(-c3ccc(Cl)cc3)c2-c2ccnc(OCCN3CCOCC3)n2)CC1", "note": "[Example 136]", "IC50": "16.9 µM"}, {"smiles": "CN(C)CCOc1nccc(-c2c(-c3cccc(Cl)c3)n[nH]c2C2CCN(C(=O)OC(C)(C)C)CC2)n1", "note": "[Example 137]", "IC50": "9.34 µM"}, {"smiles": "CN(C)CCOc1nccc(-c2c(-c3cccc(Cl)c3)n[nH]c2C2CCNCC2)n1", "note": "[Example 138]", "IC50": "0.162 µM"}, {"smiles": "CN(C)CCOc1nccc(-c2c(-c3ccc(F)c(C(F)(F)F)c3)n[nH]c2C2CCN(C(=O)CO)CC2)n1", "note": "[Example 139]", "IC50": "0.854 µM"}, {"smiles": "CC(C)(C)OC(=O)N1CCC(c2[nH]nc(-c3ccc(Cl)cc3)c2-c2ccnc(NC3CCCC3)n2)CC1", "note": "[Example 140]", "IC50": "0.01 µM"}, {"smiles": "Clc1ccc(-c2n[nH]c(C3CCNCC3)c2-c2ccnc(NC3CCCC3)n2)cc1", "note": "[Example 141]", "IC50": "0.01 µM"}, {"smiles": "CN(C)CCNc1nccc(-c2c(-c3ccc(Cl)cc3)n[nH]c2C2CCN(C(=O)OC(C)(C)C)CC2)n1", "note": "[Example 143]", "IC50": "3.64 µM"}, {"smiles": "CN(C)CCNc1nccc(-c2c(-c3ccc(Cl)cc3)n[nH]c2C2CCNCC2)n1", "note": "[Example 144]", "IC50": "0.159 µM"}, {"smiles": "CN(C)CCNc1nccc(-c2c(-c3cccc(Cl)c3)n[nH]c2C2CCN(C(=O)OC(C)(C)C)CC2)n1", "note": "[Example 145]", "IC50": "4.1 µM"}, {"smiles": "CN(C)CCNc1nccc(-c2c(-c3ccc(F)c(C(F)(F)F)c3)n[nH]c2C2CCNCC2)n1", "note": "[Example 146]", "IC50": "0.261 µM"}, {"smiles": "Fc1cc(Cl)ccc1-c1n[nH]c(C2CCNCC2)c1-c1ccnc(NC2CCCC2)n1", "note": "[Example 147]", "IC50": "0.0159 µM"}, {"smiles": "CN1CCC(c2[nH]nc(-c3ccc(Cl)cc3)c2-c2ccnc(NC3CCCC3)n2)CC1", "note": "[Example 148]", "IC50": "0.0148 µM"}, {"smiles": "Clc1ccc(-c2n[nH]c(C3CCNCC3)c2-c2ccnc(NC3CCN(Cc4ccccc4)CC3)n2)cc1", "note": "[Example 150]", "IC50": "0.034 µM"}, {"smiles": "O=C(CO)N1CCC(c2[nH]nc(-c3ccc(Cl)cc3)c2-c2ccnc(NC3CCN(Cc4ccccc4)CC3)n2)CC1", "note": "[Example 151]", "IC50": "0.053 µM"}, {"smiles": "CN1CCC(c2[nH]nc(-c3ccc(Cl)cc3)c2-c2ccnc(NC3CCN(Cc4ccccc4)CC3)n2)CC1", "note": "[Example 152]", "IC50": "0.075 µM"}, {"smiles": "CN1CCC(c2[nH]nc(-c3ccc(Cl)cc3F)c2-c2ccnc(NC3CCCC3)n2)CC1", "note": "[Example 153]", "IC50": "0.0182 µM"}, {"smiles": "O=C(CO)N1CCC(c2[nH]nc(-c3ccc(Cl)cc3F)c2-c2ccnc(NC3CCCC3)n2)CC1", "note": "[Example 154]", "IC50": "0.0176 µM"}, {"smiles": "CN(C)CCOc1nccc(-c2c(-c3ccc(F)c(C(F)(F)F)c3)n[nH]c2C2CCNCC2)n1", "note": "[Example 155]", "IC50": "0.527 µM"}, {"smiles": "CN(C)CCOc1nccc(-c2c(-c3ccc(Cl)cc3F)n[nH]c2C2CCNCC2)n1", "note": "[Example 156]", "IC50": "0.637 µM and 0.627 µM"}, {"smiles": "CN(C)CCOc1nccc(-c2c(-c3ccc(Cl)cc3F)n[nH]c2C2CCN(C(=O)CO)CC2)n1", "note": "[Example 157]", "IC50": "1.07 µM and 0.847 µM"}, {"smiles": "CN(C)CCOc1nccc(-c2c(-c3ccc(Cl)cc3F)n[nH]c2C2CCN(C(=O)CO)CC2)n1", "note": "[Example 158]", "IC50": "1.3 µM and 0.647 µM"}, {"smiles": "CS(=O)(=O)N1CCC(c2[nH]nc(-c3ccc(Cl)cc3F)c2-c2ccnc(NC3CCCC3)n2)CC1", "note": "[Example 159]", "IC50": "0.0047 µM"}, {"smiles": "CN(C)CCNc1nccc(-c2c(-c3ccc(Cl)cc3F)n[nH]c2C2CCN(C(=O)OC(C)(C)C)CC2)n1", "note": "[Example 160]", "IC50": "4.4 µM"}, {"smiles": "CN(C)CCNc1nccc(-c2c(-c3ccc(Cl)cc3F)n[nH]c2C2CCNCC2)n1", "note": "[Example 161]", "IC50": "0.202 µM"}, {"smiles": "CN(C)CCNc1nccc(-c2c(-c3ccc(Cl)cc3F)n[nH]c2C2CCN(C(=O)CO)CC2)n1", "note": "[Example 162]", "IC50": "0.474 µM"}, {"smiles": "Fc1ccc(-c2n[nH]c(C3CCNCC3)c2-c2ccnc(NC3CCCC3)n2)cc1C(F)(F)F", "note": "[Example 164]", "IC50": "0.0225 µM"}, {"smiles": "FC(F)(F)c1cc(-c2n[nH]c(C3CCNCC3)c2-c2ccnc(NC3CCCC3)n2)ccc1NC1CCCC1", "note": "[Example 165]", "IC50": "0.424 µM"}, {"smiles": "CN(C)CCNc1nccc(-c2c(-c3ccc(F)c(C(F)(F)F)c3)n[nH]c2C2CCN(C)CC2)n1", "note": "[Example 166]", "IC50": "1.1 µM"}, {"smiles": "CN1CCC(c2[nH]nc(-c3ccc(F)c(C(F)(F)F)c3)c2-c2ccnc(NC3CCCC3)n2)CC1", "note": "[Example 167]", "IC50": "0.0063 µM"}, {"smiles": "CN1CCC(c2[nH]nc(-c3ccc(Cl)cc3F)c2-c2ccnc(NC3CCCC3)n2)CC1", "note": "[Example 168]", "IC50": "1 µM"}, {"smiles": "O=C(CO)N1CCC(c2[nH]nc(-c3ccc(F)c(C(F)(F)F)c3)c2-c2ccnc(NC3CCCC3)n2)CC1", "note": "[Example 169]", "IC50": "0.0032 µM"}]}]}
